System: tobacco transformed with CYP76B1
Test: Leaf pieces of tobacco transformed with CYP76B1 aged on herbicide medium
Assay type: cell-based
Settings: 10 days on MS medium containing 0.5 μM linuron; versus empty plasmid
Protocol: FIG. 15 : Leaf pieces from tobacco transformed with CYP76B1 (left) or with an empty plasmid (right) were aged for 10 days on Murashige and Skoog (MS) medium containing 0.5 μM linuron.
The CYP76B1 cDNA was inserted in vector pBDX (Gachotte D., 1995). The resulting vector was mobilized into Agrobacterium tumefaciens strain LBA4404 by triparental mating (Ditta G. et al., 1980). Plant transformation was realized according to Horsch et al. (1985): tobacco leaf disks were soaked for 10 minutes in an Agrobacterium solution, blotted dry and placed on MS callus-inducing medium containing 500 μg/ml cefotaxime and 100 μg/ml kanamycin. After four to six weeks, shoots were transferred on MS-rooting medium containing 100 μg/ml cefotaxime and 100 μg/ml kanamycin. After rooting, plants were transferred in soil.

## CON(C)C(=O)Nc1ccc(Cl)c(Cl)c1 [linuron]
  chlorophyll destruction in leaf pieces: avoids chrorophyll destruction
